From patent US4792554A, “Pyridine compounds, pharaceutical compositions, their use in allergy therapy” (priority 1985, dated 1988) come the findings set out here.

Structures can show the parent of a compound that is named as a salt. Where two headings read alike, the source gives them in different places. Where only a bound is given, the exact number is not on record here.

The test system of one series is bradykinin. In words: Antagonistic action towards bradykinin: inhibition of bradykinin-induced bronchospasm in anesthetized guinea pigs (Konzett-Rössler). In kind it is in vivo, guinea pig. To be noted: Cavia porcellus, iv, read-out: Inhibitory action towards bradykinin (ED50). How it is done:
(§1) 1. Antagonistic action towards the allergy mediators (on anesthetized guinea pigs)
(§2) The test substances were administered intravenously in aqueous solution injected in a volume of 1 ml/kg.

A short description of series [1]: Acute toxicity, mortality within 7 days after single i.p. administration to NMRI mice. The conditions noted are these: in vivo, ip, mouse i.p. How it is done: The LD50 values were determined by the standard method of the mortality occurring within 7 days after a single intraperitoneal (i.p.) administration to NMRI mice (NMRI=Naval Medical Research Institute).

In a further series the test system is mast cells. As to the kind of experiment: Passive cutaneous anaphylaxis (PCA) in the rat, inhibition of mediator release (protective effect on mast cells). Type of series: in vivo. To be noted: for inhibition in vivo at 50 mg/kg: oral dose 50 mg/kg. An excerpt: (a) Passive cutaneous anaphylaxis (PCA) in the rat (PCA test) Passive cutaneous anaphylaxis is an IgE-mediated allergy of the immediate type (type I). In this model, antibodies bound to mast cells and basophilic granulocytes react with an intravenously administered antigen with release of excessive amount of the allergy mediators. The histamine which is released during this can be visualized by simultaneous application of Evans blue to the shaven flanks of the rats. Photometric evaluation of the color intensity was used to determine, by means of the percentage inhibition of mediator release compared with untreated control animals, the protective effect on mast cells of the compound according to the invention after oral administration.

Series [2] concerns rat peritoneal mast cells. In words: Histamine release from isolated rat mast cells induced by calcium ionophore A 23 187. In kind it is cell-based. The conditions noted are these: for IC50: Mast cell, 0.25 h, 15 min incubation, A 23 187 10^-6 g/ml, read-out: Inhibitory action in the Ca ionophore test IC50. How it is done: (b) Histamine release from isolated rat mast celss induced by calcium ionophore A 23 187 […] […] For this purpose, 10^4 cells were suspended in Clicks/RPMI (50:50, vol.; supplied by Serva, Heidelberg) tissue culture medium, incubated with the test substance for 15 minutes, and then treated with calcium ionophore A 23 187 at a concentration of 10^-6 g/ml. The released histamine was determined by high-pressure liquid chromatography (HPLC). The measure used for the inhibitory action was the IC50 which represents the molar concentration (mol/l) at which the induced histamine release was decreased to one half that of cells which had not been pretreated with a product. In this context, IC50 values above 10^-5 mol/l are regarded as therapeutically irrelevant.

In another series the test system is histamine. As to the kind of experiment: Antagonistic action towards histamine: inhibition of histamine-induced bronchospasm in anesthetized guinea pigs (Konzett-Rössler). Type of series: in vivo, guinea pig. To be noted: Cavia porcellus, iv, read-out: Inhibitory action towards histamine (ED50). How it is done: as §1, §2
Setting [3] is: anesthetized guinea pigs, dose reducing induced spasm to one half.

With `Cc1cc(N2CCSCC2)c([N+](=O)[O-])c(C)n1.Cl` [4-(2,6-dimethyl-3-nitro-4-pyridyl)thiomorpholine hydrochloride, reference compound], the ED50 with bradykinin (setting [3]) came out at 3.16 mg/kg. For the same compound, in series [1], the 50% lethal dose (LD50) at 168 h lay within 150 to 300 mg/kg. In addition, in the series with mast cells (Mast cell, oral dose 12.5 mg/kg), the inhibition in vivo at 12.5 mg/kg came out at 0%. In addition, the inhibition in vivo at 25 mg/kg in the series on mast cells (Mast cell, oral dose 25 mg/kg) was 0%. Moreover, in the series with mast cells (Mast cell), 50 mg/kg produced 13% inhibition in vivo. Further, the “protective effect on mast cells in PCA test (in words)” value with mast cells (oral administration) was “inactive”. Moreover, in series [2], the “inhibition of histamine release in the Ca ionophore test (in words)” value was “inactive” and the half-maximal inhibitory concentration (IC50) is below 100000 nM.
Turning to `Cc1cc(NCCN2CCN(C(c3ccccc3)c3ccccc3)CC2)c([N+](=O)[O-])c(C)[n+]1[O-].Cl.Cl.Cl.O.O` [Example 1, 2,6-Dimethyl-3-nitro-4-[(2-{4-diphenylmethyl-1-piperazinyl}ethyl)amino]pyridine 1-oxide trihydrochloride dihydrate], the ED50 in the series on histamine was in the range of 0.3 to 1 mg/kg; with bradykinin it was 1 to 3 mg/kg. Further, the median lethal dose (LD50) at 168 h in series [1] is above 150 mg/kg. For the same compound, the inhibition in vivo at 50 mg/kg in the series on mast cells (Mast cell) is 91%. Further, the IC50 in series [2] was 100 nM.
In the case of `Cc1cc(NCCN2CCN(Cc3ccccc3)CC2)c([N+](=O)[O-])c(C)n1` [Example 2, 4-[(2-(4-benzyl-1-piperazinyl)ethyl)amino]-2,6-dimethyl-3-nitropyridinetrihydrochloride], in the series with mast cells (Mast cell), the inhibition in vivo at 50 mg/kg stood at 67%. The concentration for half-maximal inhibition (IC50) in series [2] was 10000 nM.
`Cc1cc(NCCN2CCC(=C(c3ccccc3)c3ccccc3)CC2)c([N+](=O)[O-])c(C)n1.Cl.Cl.O.O` [Example 6, 2,6-dimethyl-3-nitro-4-[(2-{4-diphenylmethylene-1-piperidyl}ethyl)amino]pyridine dihydrochloride dihydrate]: the median effective dose (ED50) in the series with histamine was 1 to 3 mg/kg; in the series on bradykinin, 3 to 6 mg/kg. Also, the LD50 at 168 h in series [1] was 600 to 1200 mg/kg. Also, in the series with mast cells (Mast cell), the inhibition in vivo at 50 mg/kg is 91%.
Turning to `Cc1cc(NCCCN2CCN(C(c3ccccc3)c3ccccc3)CC2)c([N+](=O)[O-])c(C)n1` [Example 7], the 50% effective dose (ED50) with histamine (setting [3]) is 3 mg/kg; in the series on bradykinin (setting [3]), 3 to 10 mg/kg. The LD50 at 168 h in series [1] lay in the range of 150 to 300 mg/kg. The inhibition in vivo at 50 mg/kg with mast cells (Mast cell) stood at 55%. Further, the IC50 in series [2] was 10 nM.
On the same counts, the results for `Cc1cc(NCCN2CCN(CC=Cc3ccccc3)CC2)c([N+](=O)[O-])c(C)n1` [Example 8] are 3 mg/kg, 3 to 10 mg/kg, 75 to 150 mg/kg, 60% and 100 nM.
Turning to `Cc1cc(NCCN2CCN(C(c3ccccc3)c3ccccc3)CC2)c(C#N)c(C)n1` [Example 9], the ED50 in the series with histamine (setting [3]) is 0.3 to 1 mg/kg; in the series on bradykinin (setting [3]) it was 3 to 10 mg/kg. In series [1], the LD50 at 168 h was 300 to 600 mg/kg. Also, the inhibition in vivo at 50 mg/kg in the series on mast cells (Mast cell) came out at 64%. For the same compound, in series [2], the IC50 is 10 nM.
Take `Cc1cc(NCCN2CCN(C(c3ccccc3)c3ccccc3)CC2)c(C#N)c(C)[n+]1[O-]` [Example 10]: the 50% effective dose (ED50) with histamine (setting [3]) was in the range of 0.1 to 0.3 mg/kg; in the series on bradykinin (setting [3]) it was 1 to 3 mg/kg. The same compound gave an LD50 at 168 h in series [1] of 75 to 150 mg/kg. This compound also displayed an inhibition in vivo at 50 mg/kg with mast cells (Mast cell) of 91%. In addition, in series [2], the IC50 was below 10 nM.
`CCCc1cc(NCCN2CCN(C(c3ccccc3)c3ccccc3)CC2)c([N+](=O)[O-])c(CCC)n1` [Example 12]: the inhibition in vivo at 50 mg/kg in the series with mast cells (Mast cell) worked out at 61%.
In the case of `Cc1cc(N(C)CCN2CCN(C(c3ccccc3)c3ccccc3)CC2)c([N+](=O)[O-])c(C)n1` [Example 13], the ED50 in the series on histamine (setting [3]) is 1 to 3 mg/kg; in the series with bradykinin (setting [3]), 10 mg/kg. In series [1], this compound showed a 50% lethal dose (LD50) at 168 h of 150 to 300 mg/kg. In the series with mast cells (Mast cell), this compound showed an inhibition in vivo at 50 mg/kg of 68%. In addition, in series [2], the half-maximal inhibitory concentration (IC50) is below 10 nM.
On the same counts, the results for `Cc1cc(NCCN2CCN(C(c3ccccc3)c3ccc(Cl)cc3)CC2)c([N+](=O)[O-])c(C)n1` (centres unmarked) [Example 14] are 1 to 3 mg/kg, 3 to 10 mg/kg, 150 to 300 mg/kg, 55% and 1000 nM.
`O=[N+]([O-])c1cnccc1NCCN1CCN(C(c2ccccc2)c2ccccc2)CC1` [Example 21]: the ED50 was 0.02 mg/kg with histamine (setting [3]) and 0.03 mg/kg in the series on bradykinin (setting [3]). This compound also showed a median lethal dose (LD50) at 168 h in series [1] of 150 to 300 mg/kg.
